{
  "source": "patent US9732164B2",
  "about": "“Chitosan-derivative compounds and methods of controlling microbial populations” (SYNEDGEN, INC., priority 2006, dated 2017)",
  "system": "HeLa cells",
  "conditions": "human, 48 h, 1 micromolar",
  "data": [
    {"molecule": "CC(=O)O[C@H]1C(=O)[C@@]2(C)[C@H]([C@H](OC(=O)c3ccccc3)[C@]3(O)C[C@H](OC(=O)[C@H](O)[C@@H](NC(=O)c4ccccc4)c4ccccc4)C(C)=C1C3(C)C)[C@]1(OC(C)=O)CO[C@@H]1C[C@@H]2O", "note": "[taxol]", "values": [
      {"measurement": "HeLa cells killed", "result": "~100", "unit": "%"}
    ]}
  ]
}
